Laboratory results as given in publication PMC10307885, “A Phase 1/2 trial of SRA737 (a Chk1 inhibitor) administered orally in patients with advanced cancer” (British Journal of Cancer, 2023).

System: patients with advanced solid tumours
Assay: Phase 1/2 dose-escalation/expansion study: safety, TEAEs (NCI CTCAE v4.03), DLT, MTD, RP2D
Format: in vivo
Text: The objectives of this first-in-human, Phase 1/2, open-label, dose-escalation study of SRA737 as a single agent were to establish the safety profile, define the maximum tolerated dose (MTD) and the recommended Phase 2 dose (RP2D) and schedule, and to evaluate preliminary efficacy in prospectively selected genetically defined patients enrolled in indication-specific expansion cohorts. Secondary objectives included defining the pharmacokinetic (PK) profile of SRA737.
The study used an accelerated titration design in dose escalation beginning with single subject dose-level cohorts. Doubling of the SRA737 dose was permitted in the subsequent cohort if a dose level was determined to be safe by the cohort review committee consisting of the lead investigator, study investigators representing the site(s) currently enrolling patients, and representatives of the study sponsor. In the event of any SRA737-related adverse event Grade 2 or greater toxicity during Cycle 1, the cohort was to be expanded to 3 to 6 subjects. Thereafter the study followed a rolling 6 design wherein once the first subject completed the 7-day observation period following the first dose of SRA737, subsequent subjects in that cohort started treatment. […] Enrolment of expansion cohorts at the highest dose level determined to be safe and tolerable was initiated prior to the completion of dose escalation and determination of MTD or RP2D.
A single dose of SRA737 was given at one visit on Day −7 to Day −4 (prior to the start of Cycle 1) for PK assessments. SRA737 was then administered orally on a continuous daily dosing schedule in 28-day cycles. An accelerated titration design was used with single-patient dose-escalation cohorts starting with 20 mg SRA737 administered once daily (QD) in the first cohort, with dose doubling in subsequent single-patient cohorts. If a patient had SRA737-related Grade 2 toxicity in a dose level cohort during Cycle 1, that cohort was expanded to 3 to 6 patients, and subsequent cohorts followed a rolling six design.
Patients were assessed for DLT from the first SRA737 dose (Day −7 to Day −4) until the end of Cycle 1 (up to 35 days).
Expansion cohorts including up to 20 patients with one of the 6 specified indication-specific tumour types, were treated at SRA737 doses selected by the cohort review committee based on all available safety and PK data; expansion doses were at or below the maximum tolerated dose (MTD) from the dose-escalation phase. Patients could continue treatment until disease progression or discontinuation from study due to unacceptable toxicity, investigator/sponsor decision, or withdrawal of consent.
Safety assessments including adverse events, laboratory parameters, electrocardiograms (ECGs), and echocardiograms were conducted throughout treatment and until 30 days after the last study treatment or initiation of new anticancer treatment.
The Safety Evaluable population included all patients who received at least one dose of SRA737.
The DLT window is defined from the first dose (Day -7 to Day -4) until the end of Cycle 1 (up to 35 days).
A DLT is defined as any highly probably or probably SRA737-related event of: […]

[1] = 1300 mg QD cohort, three patients enrolled
[2] = 49 patients treated at SRA737 doses >800 mg QD
[3] = irrespective of SRA737 dose level, any grade

`N#Cc1cnc(Nc2cc(NC[C@H]3CNCCO3)c(C(F)(F)F)cn2)cn1` [SRA737, (R)-5-((4-((morpholin-2-ylmethyl)amino)-5-(trifluoromethyl)pyridin-2-yl)amino)pyr azine-2-carbonitrile] was tested, and the “Dose-limiting toxicity (DLT)” value (500 mg BID, one patient, four evaluable for DLT) was “Grade 4 thrombocytopenia”, the “Grade 1–2 TEAEs of diarrhoea” value (800 mg SRA737 dose level) was 68 % of patients and the “Grade 1–2 TEAEs of nausea” value (800 mg SRA737 dose level) was 78 % of patients. For the same molecule, the “Grade 1–2 TEAEs of vomiting” value (800 mg SRA737 dose level) was 50 % of patients, the “patients with Grade 3 diarrhoea (GI toxicity above Grade 2)” value (800 mg dose level) was “one” and the “Dose-limiting toxicities (DLTs)” value (1000 mg QD dose-escalation cohort (or any lower-dose cohorts)) was “No DLTs”. For the same molecule, the “patients requiring dose reduction to 600 mg due to GI intolerability” value (1000 mg QD, 10 evaluable patients) was 3 patients, the “Grade 1–2 TEAEs of diarrhoea” value (1000 mg SRA737 dose level) was 72 % of patients and the “Grade 1–2 TEAEs of nausea” value (1000 mg SRA737 dose level) was 65 % of patients. For the same molecule, the “Grade 1–2 TEAEs of vomiting” value (1000 mg SRA737 dose level) was 63 % of patients, the “patients with Grade 3 diarrhoea (GI toxicity above Grade 2)” value (1000 mg dose level) was 1 patient and the “patients with both Grade 3 nausea and vomiting” value (1000 mg dose level) was “single patient”. The “patients with dose-limiting GI intolerability (Grade 1–2 nausea, vomiting, and/or diarrhoea)” value [1] was 2 patients, the “patients with dose-limiting Grade 3 neutropenia” value [1] was 1 patient and the “discontinued due to SRA737-related TEAEs” value (16 patients of 107) was 15.0%. For the same molecule, the “Adverse events leading to treatment discontinuation” value (34 patients of 107) was 31.8%, the “Grade 3 or higher TEAE related to SRA737: fatigue” value [2] was 4% and the “Grade 3 or higher TEAE related to SRA737: neutropenia” value [2] was 10%. For the same molecule, the “Grade 3 or higher TEAE related to SRA737: rash/rash maculopapular combined” value [2] was 6%, the “Any SRA737-related Grade ≥3 treatment-emergent adverse event (TEAE)” value (Overall (N = 107)) was 33 (30.8) n (%) and the “Any SRA737-related treatment-emergent adverse event (TEAE), any grade” value (Overall (N = 107)) was 98 (91.6) n (%). The “SRA737-related TEAE of Grade 3 or higher: Aspartate aminotransferase increased” value (Overall (N = 107)) was 2 (1.9) n (%), the “SRA737-related TEAE of Grade 3 or higher: Diarrhoea” value (Overall (N = 107)) was 2 (1.9) n (%) and the “SRA737-related TEAE of Grade 3 or higher: Dyspnoea” value (shortened to “SRA737-related TEAE … Dyspnoea”) (Overall (N = 107)) was 2 (1.9) n (%). For the same molecule, the “SRA737-related TEAE of Grade 3 or higher: Fatigue” value (Overall (N = 107)) was 2 (1.9) n (%), the “SRA737-related TEAE of Grade 3 or higher: Lymphocyte count decreased” value (Overall (N = 107)) was 3 (2.8) n (%) and the “SRA737-related TEAE of Grade 3 or higher: Neutropenia” value (Overall (N = 107)) was 9 (8.4) n (%). The “SRA737-related TEAE of Grade 3 or higher: Rash” value (Overall (N = 107)) was 3 (2.8) n (%), the “SRA737-related TEAE of Grade 3 or higher: Rash maculopapular” value (“SRA737-related TEAE … Rash maculopapular” below) (Overall (N = 107)) was 3 (2.8) n (%) and the “SRA737-related TEAE of Grade 3 or higher: Thrombocytopenia” value (“SRA737-related TEAE … Thrombocytopenia” below) (Overall (N = 107)) was 3 (2.8) n (%). For the same molecule, the “SRA737-related TEAE of any grade: Anaemia” value (Overall (N = 107)) was 16 (15.0) n (%), the “SRA737-related TEAE of any grade: Decreased Appetite” value (Overall (N = 107)) was 19 (17.8) n (%) and the “SRA737-related TEAE of any grade: Diarrhoea” value (Overall (N = 107)) was 67 (62.6) n (%). For the same molecule, the “SRA737-related TEAE of any grade: Fatigue” value (Overall (N = 107)) was 41 (38.3) n (%), the “SRA737-related TEAE of any grade: Nausea” value (Overall (N = 107)) was 64 (59.8) n (%) and the “SRA737-related TEAE of any grade: Neutropenia” value (Overall (N = 107)) was 17 (15.9) n (%). For the same molecule, the “SRA737-related TEAE of any grade: Vomiting” value (Overall (N = 107)) was 49 (45.8) n (%), the “Any SRA737-related Grade ≥3 treatment-emergent adverse event (TEAE)” value (SRA737 dose > 800 mg (N = 49)) was 19 (38.8) n (%) and the “Any SRA737-related treatment-emergent adverse event (TEAE), any grade” value (SRA737 dose > 800 mg (N = 49)) was 47 (95.9) n (%). The “SRA737-related TEAE of Grade 3 or higher: Aspartate aminotransferase increased” value (SRA737 dose > 800 mg (N = 49)) was 0 n (%), the “SRA737-related TEAE of Grade 3 or higher: Diarrhoea” value (SRA737 dose > 800 mg (N = 49)) was 1 (2.0) n (%) and the “SRA737-related TEAE … Dyspnoea” value (SRA737 dose > 800 mg (N = 49)) was 0 n (%). The “SRA737-related TEAE of Grade 3 or higher: Fatigue” value (SRA737 dose > 800 mg (N = 49)) was 2 (4.1) n (%), the “SRA737-related TEAE of Grade 3 or higher: Lymphocyte count decreased” value (SRA737 dose > 800 mg (N = 49)) was 0 n (%) and the “SRA737-related TEAE of Grade 3 or higher: Neutropenia” value (SRA737 dose > 800 mg (N = 49)) was 5 (10.2) n (%). The “SRA737-related TEAE of Grade 3 or higher: Rash” value (SRA737 dose > 800 mg (N = 49)) was 1 (2.0) n (%), the “SRA737-related TEAE … Rash maculopapular” value (SRA737 dose > 800 mg (N = 49)) was 2 (4.1) n (%) and the “SRA737-related TEAE … Thrombocytopenia” value (SRA737 dose > 800 mg (N = 49)) was 1 (2.0) n (%). For the same molecule, the “SRA737-related TEAE of any grade: Anaemia” value (SRA737 dose > 800 mg (N = 49)) was 11 (22.4) n (%), the “SRA737-related TEAE of any grade: Decreased Appetite” value (SRA737 dose > 800 mg (N = 49)) was 7 (14.3) n (%) and the “SRA737-related TEAE of any grade: Diarrhoea” value (SRA737 dose > 800 mg (N = 49)) was 34 (69.4) n (%). The “SRA737-related TEAE of any grade: Fatigue” value (SRA737 dose > 800 mg (N = 49)) was 27 (55.1) n (%), the “SRA737-related TEAE of any grade: Nausea” value (SRA737 dose > 800 mg (N = 49)) was 32 (65.3) n (%) and the “SRA737-related TEAE of any grade: Neutropenia” value (SRA737 dose > 800 mg (N = 49)) was 7 (14.3) n (%). For the same molecule, the “SRA737-related TEAE of any grade: Vomiting” value (SRA737 dose > 800 mg (N = 49)) was 28 (57.1) n (%), the “Any SRA737-related Grade ≥3 treatment-emergent adverse event (TEAE)” value (SRA737 dose ≤ 800 mg (N = 58)) was 14 (24.1) n (%) and the “Any SRA737-related treatment-emergent adverse event (TEAE), any grade” value (SRA737 dose ≤ 800 mg (N = 58)) was 51 (87.9) n (%). For the same molecule, the “SRA737-related TEAE of Grade 3 or higher: Aspartate aminotransferase increased” value (SRA737 dose ≤ 800 mg (N = 58)) was 2 (3.4) n (%), the “SRA737-related TEAE of Grade 3 or higher: Diarrhoea” value (SRA737 dose ≤ 800 mg (N = 58)) was 1 (1.7) n (%) and the “SRA737-related TEAE … Dyspnoea” value (SRA737 dose ≤ 800 mg (N = 58)) was 2 (3.4) n (%). The “SRA737-related TEAE of Grade 3 or higher: Fatigue” value (SRA737 dose ≤ 800 mg (N = 58)) was 0 n (%), the “SRA737-related TEAE of Grade 3 or higher: Lymphocyte count decreased” value (SRA737 dose ≤ 800 mg (N = 58)) was 3 (5.2) n (%) and the “SRA737-related TEAE of Grade 3 or higher: Neutropenia” value (SRA737 dose ≤ 800 mg (N = 58)) was 4 (6.9) n (%). For the same molecule, the “SRA737-related TEAE of Grade 3 or higher: Rash” value (SRA737 dose ≤ 800 mg (N = 58)) was 2 (3.4) n (%), the “SRA737-related TEAE … Rash maculopapular” value (SRA737 dose ≤ 800 mg (N = 58)) was 1 (1.7) n (%) and the “SRA737-related TEAE … Thrombocytopenia” value (SRA737 dose ≤ 800 mg (N = 58)) was 2 (3.4) n (%). The “SRA737-related TEAE of any grade: Anaemia” value (SRA737 dose ≤ 800 mg (N = 58)) was 5 (8.6) n (%), the “SRA737-related TEAE of any grade: Decreased Appetite” value (SRA737 dose ≤ 800 mg (N = 58)) was 12 (20.7) n (%) and the “SRA737-related TEAE of any grade: Diarrhoea” value (SRA737 dose ≤ 800 mg (N = 58)) was 33 (56.9) n (%). For the same molecule, the “SRA737-related TEAE of any grade: Fatigue” value (SRA737 dose ≤ 800 mg (N = 58)) was 14 (24.1) n (%), the “SRA737-related TEAE of any grade: Nausea” value (SRA737 dose ≤ 800 mg (N = 58)) was 32 (55.2) n (%) and the “SRA737-related TEAE of any grade: Neutropenia” value (SRA737 dose ≤ 800 mg (N = 58)) was 10 (17.2) n (%). The “SRA737-related TEAE of any grade: Vomiting” value (SRA737 dose ≤ 800 mg (N = 58)) was 21 (36.2) n (%), the “Grade 3 or higher neutropenia rate” value (current study, overall) was 8% and the “Dose-limiting toxicity, events included” value (daily doses of 1000 and 1300 mg QD) was “gastrointestinal events, neutropenia and thrombocytopenia”. The “patients who tolerated the dose but required anti-emetic medication and/or night-time dosing” value (human, in vivo) was 7 patients, the “Fatal adverse events attributed to SRA737” value (in vivo) was “none” and the “Fatal adverse events reported” value (in vivo) was “ten”. The “TEAE attributed to SRA737: anaemia” value [3] was 15%, the “TEAE attributed to SRA737: decreased appetite” value [3] was 18% and the “TEAE attributed to SRA737: diarrhoea” value [3] was 63%. For the same molecule, the “TEAE attributed to SRA737: fatigue” value [3] was 38%, the “TEAE attributed to SRA737: nausea” value [3] was 60% and the “TEAE attributed to SRA737: neutropenia” value [3] was 16%. For the same molecule, the “TEAE attributed to SRA737: vomiting” value [3] was 46%, the “recommended Phase 2 dose (RP2D)” value (oral monotherapy) was 800 mg QD and the “maximum tolerated dose (MTD)” value (oral monotherapy, continuous daily dosing, 28-day cycles) was 1000 mg QD. The “GI events (diarrhoea, nausea, vomiting) reported at Grade 3 or higher severity” value (patients treated at 800 mg QD or higher) was “less than 5 % of patients”.
